The values that follow are results of earlier work, collected in patent US11147268B2, “Food contact surface sanitizing liquid” (THE CLOROX COMPANY, priority 2015, dated 2021).

Each structure is given as a SMILES string.

For the compound `OCCCO` [1,3 propanediol], the “Vapor Pressure mmHg @ 20° C.” value is listed as 0.8 mmHg.

Take `CC(C)O` [Isopropyl alcohol]: the “Vapor Pressure mmHg @ 20° C.” value is on record as 33 mmHg.

For the compound `CC(CO)CO` [2-methyl 1,3 propanediol], for the setting “@25° C.”, the “Vapor Pressure mmHg” value was 0.021 (@25° C.) mmHg.

As to `CC(O)CO` (centres unmarked) [1,2, propylene glycol], the “Vapor Pressure mmHg @ 20° C.” value is 0.07 mmHg.

With `CCO` [Ethanol], the “Vapor Pressure mmHg @ 20° C.” value was 43 mmHg.
